According to patent US7754696B2 (Pharmaceutical Solutions, Inc., priority 2001, dated 2010):

Columns and labels:
foul mites = test: Treatment of a poultry flock via drinking water, mites; assay type: in vivo; settings: 10000 head flock, 5 percent concentration mixture in water, administered over 12 hours, 180 ug per kg
Experimental: (§1) 400 cc of a 5 percent concentration mixture was added to 5 gallons of water to form a stock solution that was administered over 12 hours at a dose of 180 ug per kg.

round worms [1] = test: Treatment of a poultry flock via drinking water, round worms; assay type: in vivo; settings: 10000 head flock, 5 percent concentration mixture in water, administered over 12 hours, 180 ug per kg
Experimental: as §1

round worms [2] = test: Treatment of swine via drinking water, fecal examinations pre and post treatment; assay type: in vivo; settings: 1000 100-pound pigs, 5 percent solution in 10 gallons of water stock solution
Experimental: This is 20 mg per 100 pounds or 200 ug per pound.

[3] = room temperature; cited from earlier work
[4] = cited from earlier work
[5] = cited from earlier work; remark: listed apart in the source

SMILES: CC[C@H](C)[C@H]1O[C@]2(CC[C@@H]1C)C[C@@H]1C[C@@H](C/C=C(\C)C(O[C@H]3C[C@H](OC)[C@@H](O[C@H]4C[C@H](OC)[C@@H](O)[C@H](C)O4)[C@H](C)O3)[C@@H](C)/C=C/C=C3\CO[C@@H]4[C@H](O)C(C)=C[C@@H](C(=O)O1)[C@]34O)O2 (stereo partly drawn) [Ivermectin, 22,23 dihydroavermectin Bla]
- elimination of mites from the birds (foul mites): 100%
- elimination of worms from the birds (round worms [1]): 100%
- reduction in round worms based on fecal examinations (round worms [2]): 98%
- solubility in water [3]: about 0.005 mg per ml
- apparent volume of distribution ([4]; adults): about 47 liters
- systemic clearance ([4]; adults): about 1.2 liters/hour
- terminal half-life ([4]; adults): about 27 hours
- time to peak levels in plasma ([4]; human beings, oral administration): ≤ 4 h
- bound to plasma proteins [5]: about 93%
